Assay results taken from article PMC10311245, “Novel leaderless bacteriocin geobacillin 6 from thermophilic bacterium Parageobacillus thermoglucosidasius” (Frontiers in Microbiology, 2023).
No end group written: not given here.

Experiments:
[1] = tested on: Geobacillus kaustophilus HTA 426; assay type: cell-based
Method: (§1) MICs of Geo6 were determined according to the method of [Wiegand et al. (2008)] with some modifications. An indicator strain sensitive to bacteriocin was grown overnight at 55°C in a thermoshaker. The next day it was inoculated (2–3%) into fresh medium and cultivated until OD reached 1–1.5. The culture was further diluted and adjusted to 1 × 10^6 CFU/ml. A 95 μl of the medium was mixed with 5 μl of Geo6 and serial two-fold dilutions of suspension were made with the medium. Next, diluted mixtures were dispersed (100 μl) in a 96-well plate. A volume of 100 μl of previously prepared cell suspension was dispersed and mixed with the diluted bacteriocin in every well on the plate. As a result, the final volume of suspension in the well containing diluted bacteriocin and bacteria cells was 200 μl and the final concentration of the bacteria culture in the well was 5 × 10^5 CFU/ml. For each experiment, three replicates were made in the plate. Wells with positive controls contained a mixture of medium (95 μl) and Geo6 (5 μl), and negative controls contained bacteria suspension (5 × 10^5 CFU/ml) in the medium (100 μl). The plate was placed into a bag to prevent medium evaporation and put into a box, which was incubated overnight at 55°C in a thermoshaker. The next day, the growth inhibition was evaluated in the wells of the plate.

[2] = tested on: Geobacillus lituanicus DSM 15325^T; assay type: cell-based
Method: as §1

[3] = tested on: Geobacillus thermodenitrificans DSM 465^T; assay type: cell-based
Method: as §1

[4] = tested on: Geobacillus thermoleovorans DSM 5366^T; assay type: cell-based
Method: as §1

[5] = tested on: Parageobacillus toebii DSM 14590^T; assay type: cell-based
Method: as §1

[6] = tested on: G. kaustophilus HTA 426^T; assay: Live/dead assay (membrane integrity, SYTO9 and PI); assay type: cell-based, Geobacillus kaustophilus; details: 600 nM Geo6, 30 min, BHI, 55°C; fluorescence microscopy; red = damaged membrane
Method: An indicator strain G. kaustophilus HTA 426^T sensitive to bacteriocin was grown in BHI medium at 55°C till OD 0.5 was reached. Next, the bacteria culture was treated with 600 nM of Geo6 and further cultivated for 30 min. Then, the cell culture was centrifuged at 3000 ×g for 5 min and further washed two times with 0.9% NaCl solution (centrifuged at 3000 ×g for 5 min). After the last wash, cells were suspended in 0.9% NaCl solution and stained using LIVE/DEAD BacLight Bacterial Viability Kit (Invitrogen) containing SYTO9 and […] according to manufacturers’ recommendations. Cells were incubated in the dark at room temperature for 15 min. Next, cells were centrifuged at 3000 ×g for 5 min and washed two times with 0.9% NaCl solution (centrifuged at 3000 ×g for 5 min). Further, 10 μl of Geo6 treated cells and nontreated control cells suspensions were spotted onto objective slides and examined using a fluorescence microscope using filters FITC (480/500 nm) and Texas Red (490/635 nm).

[7] = Bacteriocin thermostability (activity by spot on a lawn assay after incubation); assay type: physicochemical; details: spot on a lawn read-out; for Antibacterial activity retained after heat treatment: two-fold dilutions
Method: […] After incubation, serial two-fold dilutions of samples were made using medium, and further antibacterial activity of bacteriocin was assessed by spot on a lawn assay.

[8] = Bacteriocin stability in different pH ranges (activity by spot on a lawn assay after incubation); assay type: physicochemical; details: pH range 3–11, 25 mM Britton-Robinson buffer, 1:20, room temperature 2 h, neutralized to pH 7; spot on a lawn read-out
Method: For evaluation of stability at different pH ranges, purified recombinant Geo6 was mixed with 25 mM Britton-Robinson buffer solutions ([Ebihara et al., 2016]) with different pH values in a ratio of 1:20. After incubation at room temperature for 2 h samples were neutralized with NaOH or HCl solutions to pH 7. Further, samples were diluted two-fold using a medium and assessed for antibacterial activity using spot on a lawn assay.

[9] = Thermal shift assay (differential scanning fluorimetry, SYPRO Orange); assay type: physicochemical; details: DSF, called inconclusive; for Melting temperature (Tm): 20–95°C, triplicate
Method: As an indicator of thermal denaturation in varying pH or other conditions a fluorescent SYPRO Orange dye (Invitrogen) that binds to hydrophobic parts of protein during its unfolding was used in this work. SYPRO Orange 50× stock solution was prepared by diluting 2.5 μl of 5,000× concentrate into 250 μl of deionized (DI) water. A volume of 2.5 μl of 50× SYPRO Orange was aliquoted into a white HardShell 96-well PCR plate (Bio-Rad). Different pH buffer solutions (25 mM Briton-Robinson, pH 3–11; [Bendikienė et al., 2004]) were added to aliquoted SYPRO Orange followed by adding an appropriately diluted solution of purified Geo6 into the wells at a final concentration of 0.25 nmol/ml (1.3 μg/ml). The final volume of the mixture was 25 μl. The negative control was 25 mM of Briton-Robinson buffer solutions in a range of pH 3 to 11, with 2.5 μl of SYPRO Orange. Lysozyme (final concentration of 100 μg/ml) diluted in 25 mM Briton-Robinson buffer (pH 5 and 6) and mixed with 2.5 μl of SYPRO Orange was used as a positive control. A curve experiment for DNA with the elimination of the initial denaturation step at 95°C was used. The melt curve temperature range was set from 20°C to 95°C in increments of 0.5°C for 5 s. Each experimental condition was prepared in triplicate. Thermal shift analysis or differential scanning fluorimetry (DSF) of Geo6 was performed in CFX Touch Real TIME PCR System (Bio-Rad) using CFX Manager (Bio-Rad) software.

B. campestris ATCC 43754 = details: ref Acedo et al., 2016; cited from earlier work
Excerpt: (§2) For comparison, previous studies have shown that pallidocin, a glycocin-type bacteriocin produced by thermophilic bacteria A. pallidus strain 8, was active in the pM range against other thermophiles, and a 2.4 pM concentration of pallidocin inhibited the growth of thermophilic bacterium P. genomospecies 1 strain NUB36187 ([Kaunietis et al., 2019]). Other leaderless bacteriocins are active in the μM and nM ranges ([Fujita et al., 2007]; [Iwatani et al., 2007]) and have a broad spectrum of activity.

L. lactis ATCC 19257 = details: ref Acedo et al., 2016; cited from earlier work
Excerpt: as §2

[10] = CD spectroscopy, aqueous buffers; reversible two-state conversion between helical and unfolded forms; ref Hammond et al., 2020; cited from earlier work
Excerpt: A recent study using the CD spectroscopy method confirmed the formation of helical structures in epidermicin NI01 and aureocin A53 in aqueous buffers. […] Due to these interesting findings, we decided to employ a thermal shift assay, also known as differential scanning fluorimetry (DSF), to analyze the thermal denaturation of Geo6 under different pH ranges and temperatures. Additionally, to the best of our knowledge, this ...

B. coagulans JCM 2257^T = details: ref Iwatani et al., 2007; cited from earlier work
Excerpt: as §2

Escherichia coli JM109 = details: ref Iwatani et al., 2007; cited from earlier work
Excerpt: as §2

[11] = tested on: L. sakei subsp. sakei JCM 1157^T; details: ref Iwatani et al., 2007; cited from earlier work
Excerpt: as §2

[12] = tested on: P. dextrinicus JCM 5887^T; details: ref Iwatani et al., 2007; cited from earlier work
Excerpt: as §2

[13] = tested on: P. genomospecies 1 strain NUB36187; details: thermophilic bacterium; ref Kaunietis et al., 2019; cited from earlier work
Excerpt: as §2

GMATFLRIVAQLSSKAAKWALDNKDKVLKWIRDGMAIDWIIDKINDIVG [Geo6, geobacillin 6]
MIC [1]: 0.293 µM
MIC [2]: 0.585 µM
MIC [3]: 2.34 µM
MIC [4]: 0.585 µM
MIC [5]: 4.45 µM
Membrane integrity (SYTO9/PI fluorescence of treated cells) [6]: all the cells exhibited red fluorescence
Antibacterial activity retained after heat treatment ([7]; 60°C for 2 h): 100%
Antibacterial activity retained after heat treatment ([7]; 70°C for 2 h): 100%
Antibacterial activity retained after heat treatment ([7]; 95°C for 6 h): did not abolish its activity
Antibacterial activity retained after heat treatment ([7]; 95°C for 6 h, listed as Geobacillin 6): 100%
Antibacterial activity retained after heat treatment ([7]; 100°C for 2 h): 100%
Antibacterial activity retained after incubation at room temperature ([7]; room temperature for 24 h): 100%
Antibacterial activity retained after incubation at different pH [8]: 100%
Melting temperature (Tm) ([9]; 25 mM Briton-Robinson buffer pH 8, 0.25 nmol/ml (1.3 μg/ml)): none
Melting temperature (Tm) ([9]; 25 mM Briton-Robinson buffer pH 9, 0.25 nmol/ml (1.3 μg/ml)): 76.75±1.77 °C
Melting temperature (Tm) ([9]; 25 mM Briton-Robinson buffer pH 10, 0.25 nmol/ml (1.3 μg/ml)): 76.5 °C
Melting temperature (Tm) ([9]; 25 mM Briton-Robinson buffer pH 11, 0.25 nmol/ml (1.3 μg/ml)): 80.5±0.7 °C
Melting temperatures (Tm), partial unfolding ([9]; range of pH 9–11, 20–95°C): 76.5–80.5 °C

aureocin A54 (MSWLNFLKYIAKYGKKAVSAAWKYKGKVLEWLNVGPTLEWVWQKLKKIAGL; UniProt Q8GPI4 1-51, looked up)
MIC (B. campestris ATCC 43754): 2 µM
MIC (L. lactis ATCC 19257): 0.25 µM

epidermicin NI01
Denaturation temperature [10]: 60 °C

lacticin Q
MIC (B. coagulans JCM 2257^T): 0.0016 µM
Antibacterial activity (Escherichia coli JM109): No activity was detected
MIC [11]: 0.0032 µM
MIC [12]: 0.0073 µM

pallidocin
Concentration that inhibited growth [13]: 2.4 pM
